Data on 62 compounds can be found in patent publication US20050009840A1 (SUGEN, INC., priority 2003, published 2005).

Like-named read-outs stand apart in the source and are kept apart here.

The term inhibition denotes the change of the read-out against control, counted positive when it falls. In general, Ki refers to the dissociation constant of the complex between target and ligand, obtained from inhibition or displacement.

In the assay the target is T1, HGFR (Homo sapiens, UniProt P08581).
T1 construct: purchased Upstate 14-526
The assay is described as follows: HGFR continuous-coupled spectrophotometric assay. Format: biochemical. Conditions: for inhibition at 1 µM: Table 8, library procedure 43; for inhibition at 1 µM / inhibition at 1 pM: read-out: % Inhibition (percent c-MET inhibition); for inhibition at 0.05 µM: at 50 nM, Table 5, library procedure 40, read-out: % inhibition (percent c-MET inhibition).

Where [1] appears, read: cells prefixed Ki, read-out: Met Ki.
The mark [2] stands for this setting: Table 3, column 'Ki (μM) or I (%)': cells without % sign, read-out: Ki.

T1 sequence (P08581 974-1390 limits assumed): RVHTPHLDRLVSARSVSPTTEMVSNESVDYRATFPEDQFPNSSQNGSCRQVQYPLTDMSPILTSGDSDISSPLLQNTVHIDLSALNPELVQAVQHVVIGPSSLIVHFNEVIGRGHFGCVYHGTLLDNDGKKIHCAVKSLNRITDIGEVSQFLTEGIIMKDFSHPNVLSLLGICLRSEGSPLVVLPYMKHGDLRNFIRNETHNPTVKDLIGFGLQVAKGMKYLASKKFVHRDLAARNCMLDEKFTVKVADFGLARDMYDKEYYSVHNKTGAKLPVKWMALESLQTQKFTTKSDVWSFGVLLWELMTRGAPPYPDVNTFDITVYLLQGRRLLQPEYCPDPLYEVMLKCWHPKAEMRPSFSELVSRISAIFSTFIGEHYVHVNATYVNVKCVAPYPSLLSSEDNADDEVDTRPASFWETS

Consider `Cc1ccc(F)cc1COc1cc(-c2ccc(C(=O)N3CC(C)NC(C)C3)cc2)cnc1N` (centres unmarked), for which the inhibition at 1 µM turned out to be 28%.
In the case of `Nc1ncc(-c2ccc(C(=O)N3CCC(N4CCCC4)CC3)cc2)cc1OCc1ccc(Cl)cc1Br`, the inhibition at 1 pM (Table 7, library procedure 42) was 28%.
As for `CC(Oc1cc(-c2ccc(C(=O)N3CCC(N(C)C)CC3)cc2)cnc1N)c1c(Cl)ccc(F)c1Cl` [Example L-26], the inhibition at 0.05 µM is 92%.
Consider `Nc1ncc(C(=O)NC(CO)c2cccnc2)cc1OCc1c(Cl)cccc1Cl` [Example L-300], for which the inhibition at 1 pM (Table 6, library procedure 41) was found to be 22%.
As to `Nc1ncc(-c2ccc(C(=O)N3CCC(N4CCCC4)CC3)cc2)cc1OCc1ccc(C(F)(F)F)nc1`, the inhibition at 1 pM (Table 7, library procedure 42) is 13%.
For `CN(C)C(=O)c1cnc(N)c(OCc2c(Cl)cccc2Cl)c1` [Example L-266], the inhibition at 1 pM (Table 6, library procedure 41) is 10%.
Turning to `CC1CN(C(=O)c2ccc(-c3cnc(N)c(OCc4cc(F)ccc4Br)c3)cc2)CC(C)N1` (centres unmarked), the inhibition at 1 µM turned out to be 21%.
Regarding `Nc1ncc(C(=O)N2CCC(O)C2)cc1OCc1c(Cl)cccc1Cl` [Example L-227], the inhibition at 1 pM (Table 6, library procedure 41) came to 83%.
As to `Nc1ncc(-c2ccc(C(=O)N3CCC(N4CCCC4)CC3)cc2)cc1OCc1ccc(C(F)(F)F)cc1C(F)(F)F`, the inhibition at 1 pM (Table 7, library procedure 42) amounted to 12%.
Take `CC(Oc1cc(-c2ccc(C(=O)N3CCC(O)CC3)cc2)cnc1N)c1c(Cl)ccc(F)c1Cl` [Example L-29]: the inhibition at 0.05 µM stood at 86%.
For `CC(Oc1cc(-c2ccc(C(=O)N3CCS(=O)(=O)CC3)cc2)cnc1N)c1c(Cl)ccc(F)c1Cl` [Example L-153], the inhibition at 0.05 µM is 95%.
`NC(=O)c1ccc(CC2CCN(C(=O)c3cnc(N)c(OCc4c(Cl)cccc4Cl)c3)CC2)cc1` [Example L-317]: the inhibition at 1 pM (Table 6, library procedure 41) turned out to be 12%.
On to `Nc1ncc(-c2ccc(C(=O)N3CCC(N4CCCC4)CC3)cc2)cc1OCc1ccc(S(=O)(=O)c2ccc(F)cc2)cc1`, for which the inhibition at 1 pM (Table 7, library procedure 42) came out at 13%.
For the compound `CC(C)NC(=O)CN1CCN(C(=O)c2ccc(-c3cnc(N)c(OC(C)c4c(Cl)ccc(F)c4Cl)c3)cc2)CC1` [Example L-38], the inhibition at 0.05 µM was 86%.
Consider `CC(Oc1cc(C#CC(C)(C)N)ccc1N)c1c(Cl)ccc(F)c1Cl` (centres unmarked) [Example I-441, 4-(3-Amino-3-methyl-but-1-ynyl)-2-[1-(2,6-dichloro-3-fluoro-phenyl)-ethoxy]-phenylamine], for which the Ki under setting [1] stood at 1.06 µM.
`COCCCNC(=O)c1ccc(-c2cnc(N)c(OC(C)c3c(Cl)ccc(F)c3Cl)c2)cc1` [Example L-54]: the inhibition at 0.05 µM turned out to be 95%.
Turning to `CC1CN(C(=O)c2ccc(-c3cnc(N)c(OCc4nsc(Cl)n4)c3)cc2)CC(C)N1` (centres unmarked), the inhibition at 1 µM worked out at 6%.
In the case of `C[C@H](Oc1cc(-c2ccc(C(=O)NC[C@@H](C)O)cc2)cnc1N)c1c(Cl)ccc(F)c1Cl` [Example L-101], the inhibition at 0.05 µM was found to be 79%.
Consider `CC1CN(C(=O)c2ccc(-c3cnc(N)c(OCc4cc(-c5c(Cl)cccc5Cl)no4)c3)cc2)CC(C)N1` (centres unmarked), for which the inhibition at 1 µM worked out at 16%.
Regarding “(4-{6-Amino-5-[1-(2,6- dichloro-3-fluoro-phenyl)- ethoxy]-pyridin-3-yl}- phenyl)-(4-ethyl-piperizin- 1-yl)-methanone [Example I-633]”, the Ki under setting [2] is 0.0472 µM.
For `Nc1ncc(-c2ccc(C(=O)N3CCC(N4CCCC4)CC3)cc2)cc1OCc1noc(-c2ccccc2)n1`, the inhibition at 1 pM (Table 7, library procedure 42) worked out at 16%.
For `CC1CN(C(=O)c2ccc(-c3cnc(N)c(OCc4cc(Br)cc(Br)c4)c3)cc2)CC(C)N1` (centres unmarked), the inhibition at 1 µM turned out to be 42%.
As to `CC(O)CCNC(=O)c1cnc(N)c(OCc2c(Cl)cccc2Cl)c1` [Example L-238], the inhibition at 1 pM (Table 6, library procedure 41) stood at 35%.
`CC(CCCC(C)(C)O)NC(=O)c1cnc(N)c(OCc2c(Cl)cccc2Cl)c1` [Example L-218]: the inhibition at 1 pM (Table 6, library procedure 41) stood at 35%.
On to `CC(Oc1cc(-c2ccc(C(=O)NCCc3c[nH]c4ccc(O)cc34)cc2)cnc1N)c1c(Cl)ccc(F)c1Cl` [Example L-69], for which the inhibition at 0.05 µM was 66%.
In the case of `CC(C)Cc1noc(COc2cc(-c3ccc(C(=O)N4CCC(N5CCCC5)CC4)cc3)cnc2N)n1`, under “Table 7, library procedure 42”, the inhibition at 1 pM came to 12%.
Regarding `CC1CN(C(=O)c2ccc(-c3cnc(N)c(OCc4ccc(C(F)(F)F)cc4F)c3)cc2)CC(C)N1` (centres unmarked), the inhibition at 1 µM amounted to 24%.
As to `Nc1ncc(C(=O)N2CCC3(CC2)CC3C(=O)N2CCCCC2)cc1OCc1c(Cl)cccc1Cl` [Example L-325], under “Table 6, library procedure 41”, the inhibition at 1 pM is 26%.
`Nc1ncc(-c2ccc(C(=O)N3CCN(C4CCCC4)CC3)cc2)cc1OCc1cc(F)cc2c1OCOC2`: the inhibition at 1 pM (Table 7, library procedure 42) is 21%.
On the same count and under the same terms, the same measure for `CC(C)Oc1cc(C(F)(F)F)nc2ccc(COc3cc(-c4ccc(C(=O)N5CCC(N6CCCC6)CC5)cc4)cnc3N)cc12`: 19%.
On to `Nc1ncc(C(=O)N2CCN(CCCO)CC2)cc1OCc1c(Cl)cccc1Cl` [Example L-209], for which the inhibition at 1 pM (Table 6, library procedure 41) was determined as 31%.
As to `CC(Oc1cc(-c2ccc(C(=O)N3CCC(CO)CC3)cc2)cnc1N)c1c(Cl)ccc(F)c1Cl` [Example L-141], the inhibition at 0.05 µM is 79%.
Regarding `CC(Oc1cc(-c2ccc(C(=O)N3CCCCC3)cc2)cnc1N)c1c(Cl)ccc(F)c1Cl` (centres unmarked) [Example I-546, (4-{6-Amino-5-[1-(2,6-dichloro-3-fluoro-phenyl)-ethoxy]-pyridin-3-yl}-phenyl)-pipendin-1-yl-methanone], the Ki under setting [2] came to 0.057 µM.
In the case of `CC(C)c1ccc(COc2cc(-c3ccc(C(=O)N4CCC(N5CCCC5)CC4)cc3)cnc2N)cc1`, the inhibition at 1 pM (Table 7, library procedure 42) is 32%.
Consider `Cc1noc(C)c1-c1nc(COc2cc(-c3ccc(C(=O)N4CC(C)NC(C)C4)cc3)cnc2N)no1` (centres unmarked), for which the inhibition at 1 µM turned out to be 14%.
In the case of `CC(Oc1cc(-c2ccc(C(=O)NCCc3ccccn3)cc2)cnc1N)c1c(Cl)ccc(F)c1Cl` [Example L-11], the inhibition at 0.05 µM is 67%.
For `Nc1ncc(C(=O)NCCC2CCOCC2)cc1OCc1c(Cl)cccc1Cl` [Example L-298], the inhibition at 1 pM (Table 6, library procedure 41) is 31%.
Turning to `CCCNC(=O)c1ccc(-c2cnc(N)c(OC(C)c3c(Cl)ccc(F)c3Cl)c2)cc1` [Example L-66], the inhibition at 0.05 µM is 73%.
In the case of `Cc1nc2scc(COc3cc(-c4ccc(C(=O)N5CCC(N6CCCC6)CC5)cc4)cnc3N)c2c(=O)[nH]1`, the inhibition at 1 pM (Table 7, library procedure 42) came to 10%.
In the case of `CC1CCC(=O)C(NC(=O)c2cnc(N)c(OCc3c(Cl)cccc3Cl)c2)C1` [Example L-260], the inhibition at 1 pM (Table 6, library procedure 41) stood at 40%.
As for `Nc1ncc(-c2ccc(C(=O)N3CCC(N4CCCC4)CC3)cc2)cc1OCc1ncccn1`, the inhibition at 1 pM (Table 7, library procedure 42) is 9%.
On to `CC1CN(C(=O)c2ccc(-c3cnc(N)c(OCc4ccc(-c5ccccc5C#N)cc4)c3)cc2)CC(C)N1` (centres unmarked), for which the inhibition at 1 µM was found to be 73%.
For the compound `Nc1ncc(-c2ccc(C(=O)N3CCC(N4CCCC4)CC3)cc2)cc1OCc1cccc(Br)c1`, the inhibition at 1 pM (Table 7, library procedure 42) came out at 24%.
On to `CC(Oc1cc(-c2ccc(C(=O)NCCCN3CCCCC3C)cc2)cnc1N)c1c(Cl)ccc(F)c1Cl` [Example L-8], for which the inhibition at 0.05 µM was determined as 72%.
Still for that read-out and setting: as for `CC(Oc1cc(-c2ccc(C(=O)NC3CCCCC3)cc2)cnc1N)c1c(Cl)ccc(F)c1Cl` [Example L-87], the figure is 56%.
For `Nc1ncc(-c2ccc(C(=O)N3CCC(N4CCCC4)CC3)cc2)cc1OCc1ccccc1OC(F)F`, the inhibition at 1 pM (Table 7, library procedure 42) amounted to 27%.
On to `Nc1ncc(-c2ccc(C(=O)N3CCC(N4CCCC4)CC3)cc2)cc1OCc1nc(NC2CC2)c2ccccc2n1`, for which, where the note is “Table 7, library procedure 42”, the inhibition at 1 pM was found to be 6%.
`C[C@H](Oc1cc(-c2ccc(C(=O)NC[C@H]3CCCO3)cc2)cnc1N)c1c(Cl)ccc(F)c1Cl` [Example L-97]: the inhibition at 0.05 µM is 60%.
On to `Nc1ncc(C(=O)N2CCCC(C(=O)N3CCOCC3)C2)cc1OCc1c(Cl)cccc1Cl` [Example L-287], for which, for the setting “Table 6, library procedure 41”, the inhibition at 1 pM came to 21%.
Take `Nc1ncc(-c2ccc(C(=O)N3CCC(N4CCCC4)CC3)cc2)cc1OCc1ccc(C(=O)N2CCNC(c3ccccc3)C2)cc1` (centres unmarked): the inhibition at 1 pM (Table 7, library procedure 42) came to 12%.
As to `COc1cc(CCNC(=O)c2ccc(-c3cnc(N)c(OC(C)c4c(Cl)ccc(F)c4Cl)c3)cc2)ccc1O` [Example L-92], the inhibition at 0.05 µM worked out at 64%.
In the case of `Nc1ncc(-c2ccc(C(=O)N3CCC(N4CCCC4)CC3)cc2)cc1OCc1cc(C(F)(F)F)cc(C(F)(F)F)c1`, the inhibition at 1 pM (Table 7, library procedure 42) was determined as 14%.
For the compound `COc1ccc(OC)c(-c2cnc(N)c(OC(C)c3c(Cl)ccc(F)c3Cl)c2)c1` (centres unmarked) [Example I-556, 3-[1-(2,6-Dichloro-3-fluoro-phenyl)-ethoxy]-5-(2,5-dimethoxy-phenyl)-pyridin-2-ylamine], the Ki under setting [2] amounted to 0.575 µM.
Regarding `COCCNC(=O)C1CCCN(C(=O)c2cnc(N)c(OCc3c(Cl)cccc3Cl)c2)C1` [Example L-288], the inhibition at 1 pM (Table 6, library procedure 41) turned out to be 20%.
Turning to `CC(Oc1cc(-c2ccc(C(=O)N3CCC(C(=O)c4ccccc4)CC3)cc2)cnc1N)c1c(Cl)ccc(F)c1Cl` [Example L-136], the inhibition at 0.05 µM stood at 61%.
`CC(Oc1cc(-c2ccc(C(=O)N3CCC(N4CCCC4)CC3)cc2)cnc1N)c1ccccc1C(F)(F)F` (centres unmarked): under “Table 7, library procedure 42”, the inhibition at 1 pM stood at 21%.
For the compound `CC(Oc1cc(-c2ccc(C(=O)NCCC#N)cc2)cnc1N)c1c(Cl)ccc(F)c1Cl` [Example L-109], the inhibition at 0.05 µM worked out at 76%.
As to `CC(C)CCNC(=O)c1ccc(-c2cnc(N)c(OC(C)c3c(Cl)ccc(F)c3Cl)c2)cc1` [Example L-67], the inhibition at 0.05 µM is 53%.
With `Nc1ncc(C(=O)NCc2c(F)cccc2F)cc1OCc1c(Cl)cccc1Cl` [Example L-279], where the note is “Table 6, library procedure 41”, the inhibition at 1 pM amounted to 32%.
As to `C=Cc1cnc(N)c(OC(C)c2c(Cl)ccc(F)c2Cl)c1` (centres unmarked) [Example I-461, 3-[1-(2,6-Dichloro-3-fluoro-phenyl)-ethoxy]-5-vinyl-pyridin-2-ylamine], the inhibition constant (Ki) under setting [1] stood at 0.68 µM.
Turning to `Nc1ncc(-c2ccc(C(=O)N3CCC(N4CCCC4)CC3)cc2)cc1OCc1ccc(C(=O)NC2CCN(Cc3ccccc3)CC2)cc1`, the inhibition at 1 pM (Table 7, library procedure 42) stood at 11%.
`CC(Oc1cc(-c2ccc(C(=O)NCCc3cccc(C(F)(F)F)c3)cc2)cnc1N)c1c(Cl)ccc(F)c1Cl` [Example L-94]: the inhibition at 0.05 µM was found to be 51%.
